Test results as given in patent US12497365B2, “4-pyridinyl formamide compound or derivative thereof, preparation method therefor, herbicidal composition and use thereof” (Qingdao Kingagroot Chemical Compound Co., Ltd., priority 2019, dated 2025).

Tests used:
Experiment in all cases: Weeding effect in post-emergence stage
Assay type in all cases: in vivo
Conditions in all cases: active ingredient 2000 g/ha, 3 weeks after application, fresh weight control rate
Abutilon theophrasti = tested on: Abutilon theophrasti
Source text: (§1) The activity level criteria for plant damage (i.e., growth control rate) are as follows:
(§2) The above growth control rates are fresh weight control rates.
(§3) Experiment on weeding effect in post-emergence stage: monocotyledonous and dicotyledonous weed seeds and major crop seeds (wheat, corn, rice, soybean, cotton, oilseed rape, millet, sorghum) were placed in plastic pots filled with soil, then covered with 0.5-2 cm of soil, allowed to grow in a good greenhouse environment. After 2 weeks of sowing, the test plants were treated in the 2-3 leaf stage. The tested compounds of the present invention were respectively dissolved in acetone at the dosage of 2000, 1000, 500, 250, 125 g/ha, then added with Tween 80 and 1.5 liter/ha of emulsifiable concentrate of methyl oleate as synergist, diluted with a certain amount of water to obtain a solution with a certain concentration, and sprayed with a spray tower onto the plants. After the application, the plants were cultured for 3 weeks in the greenhouse, and then the experimental results were listed in Table 1.

[1] = tested on: Amaranthus retroflexus L.
Source text: as §1, §2, §3

Chenopodium album = tested on: Chenopodium album
Source text: as §1, §2, §3

Descurainia sophia = tested on: Descurainia sophia
Source text: as §1, §2, §3

SMILES | Weeding effect, activity level (growth control rate), Abutilon theophrasti (Abutilon theophrasti) | Weeding effect, activity level (growth control rate), Amaranthus retroflexus L. [1] | Weeding effect, activity level (growth control rate), Chenopodium album (Chenopodium album) | Weeding effect, activity level (growth control rate), Descurainia sophia (Descurainia sophia)
Cn1nnnc1NC(=O)c1ccnc(-c2ccc(S(C)(=O)=O)cc2)c1Cl [Compound 1-45] | 5 (Level 5: growth control rate is above 85%) | 5 (Level 5: growth control rate is above 85%) | 5 (Level 5: growth control rate is above 85%) | 5 (Level 5: growth control rate is above 85%)
Cn1nnnc1NC(=O)c1ccnc(-c2ccc(S(=O)(=O)N3CCOCC3)cc2)c1Cl [Compound 1-46] | 5 (Level 5: growth control rate is above 85%) | 5 (Level 5: growth control rate is above 85%) | 5 (Level 5: growth control rate is above 85%) | 5 (Level 5: growth control rate is above 85%)
CC(=O)Nc1ccc(-c2nccc(C(=O)Nc3nnnn3C)c2Cl)cc1 [Compound 1-47] | 5 (Level 5: growth control rate is above 85%) | 5 (Level 5: growth control rate is above 85%) | 5 (Level 5: growth control rate is above 85%) | 5 (Level 5: growth control rate is above 85%)
C=CC(=O)Nc1cccc(-c2nccc(C(=O)Nc3nnnn3C)c2Cl)c1 [Compound 1-48] | 5 (Level 5: growth control rate is above 85%) | 5 (Level 5: growth control rate is above 85%) | 5 (Level 5: growth control rate is above 85%) | 5 (Level 5: growth control rate is above 85%)
Cn1nnnc1NC(=O)c1ccnc(-c2cccc(C#N)c2)c1Cl [Compound 1-49] | 5 (Level 5: growth control rate is above 85%) | 5 (Level 5: growth control rate is above 85%) | 5 (Level 5: growth control rate is above 85%) | 5 (Level 5: growth control rate is above 85%)
Cn1nnnc1NC(=O)c1ccnc(-c2ccc(C#N)cc2)c1Cl [Compound 1-50] | 5 (Level 5: growth control rate is above 85%) | 5 (Level 5: growth control rate is above 85%) | 5 (Level 5: growth control rate is above 85%) | 5 (Level 5: growth control rate is above 85%)
Cn1nnnc1NC(=O)c1ccnc(-c2ccc(OC3CCCCO3)cc2)c1Cl (centres unmarked) [Compound 1-51] | 5 (Level 5: growth control rate is above 85%) | 5 (Level 5: growth control rate is above 85%) | 5 (Level 5: growth control rate is above 85%) | 5 (Level 5: growth control rate is above 85%)
Cn1nnnc1NC(=O)c1ccnc(-c2ccccc2-c2ccccc2)c1Cl [Compound 1-52] | 5 (Level 5: growth control rate is above 85%) | 5 (Level 5: growth control rate is above 85%) | 5 (Level 5: growth control rate is above 85%) | 5 (Level 5: growth control rate is above 85%)
Cn1nnnc1NC(=O)c1ccnc(-c2ccc(-c3ccccc3)cc2)c1Cl [Compound 1-53] | 5 (Level 5: growth control rate is above 85%) | 5 (Level 5: growth control rate is above 85%) | 5 (Level 5: growth control rate is above 85%) | 5 (Level 5: growth control rate is above 85%)
CCc1ccc(-c2ccc(-c3nccc(C(=O)Nc4nnnn4C)c3Cl)cc2)cc1 [Compound 1-54] | 5 (Level 5: growth control rate is above 85%) | 5 (Level 5: growth control rate is above 85%) | 5 (Level 5: growth control rate is above 85%) | 5 (Level 5: growth control rate is above 85%)
Cn1nnnc1NC(=O)c1ccnc(-c2cccc(OCc3ccccc3)c2)c1Cl [Compound 1-56] | 5 (Level 5: growth control rate is above 85%) | 5 (Level 5: growth control rate is above 85%) | 5 (Level 5: growth control rate is above 85%) | 5 (Level 5: growth control rate is above 85%)
Cn1nnnc1NC(=O)c1ccnc(-c2ccccc2Oc2ccccc2)c1Cl [Compound 1-57] | 5 (Level 5: growth control rate is above 85%) | 5 (Level 5: growth control rate is above 85%) | 5 (Level 5: growth control rate is above 85%) | 5 (Level 5: growth control rate is above 85%)
Cc1cccc(C)c1-c1nccc(C(=O)Nc2nnnn2C)c1Cl [Compound 1-58] | 5 (Level 5: growth control rate is above 85%) | 5 (Level 5: growth control rate is above 85%) | 5 (Level 5: growth control rate is above 85%) | 5 (Level 5: growth control rate is above 85%)
Cc1ccc(-c2nccc(C(=O)Nc3nnnn3C)c2Cl)c(C)c1 [Compound 1-59] | 5 (Level 5: growth control rate is above 85%) | 5 (Level 5: growth control rate is above 85%) | 5 (Level 5: growth control rate is above 85%) | 5 (Level 5: growth control rate is above 85%)
Cc1cc(C)cc(-c2nccc(C(=O)Nc3nnnn3C)c2Cl)c1 [Compound 1-60] | 5 (Level 5: growth control rate is above 85%) | 5 (Level 5: growth control rate is above 85%) | 5 (Level 5: growth control rate is above 85%) | 5 (Level 5: growth control rate is above 85%)
Cn1nnnc1NC(=O)c1ccnc(-c2cc(C(C)(C)C)cc(C(C)(C)C)c2)c1Cl [Compound 1-61] | 5 (Level 5: growth control rate is above 85%) | 5 (Level 5: growth control rate is above 85%) | 5 (Level 5: growth control rate is above 85%) | 5 (Level 5: growth control rate is above 85%)
Cn1nnnc1NC(=O)c1ccnc(-c2cccc(F)c2F)c1Cl [Compound 1-62] | 5 (Level 5: growth control rate is above 85%) | 5 (Level 5: growth control rate is above 85%) | 5 (Level 5: growth control rate is above 85%) | 5 (Level 5: growth control rate is above 85%)
Cn1nnnc1NC(=O)c1ccnc(-c2cc(F)ccc2F)c1Cl [Compound 1-63] | 5 (Level 5: growth control rate is above 85%) | 5 (Level 5: growth control rate is above 85%) | 5 (Level 5: growth control rate is above 85%) | 5 (Level 5: growth control rate is above 85%)
Cn1nnnc1NC(=O)c1ccnc(-c2ccc(F)cc2F)c1Cl [Compound 1-64] | 5 (Level 5: growth control rate is above 85%) | 5 (Level 5: growth control rate is above 85%) | 5 (Level 5: growth control rate is above 85%) | 5 (Level 5: growth control rate is above 85%)
Cn1nnnc1NC(=O)c1ccnc(-c2cc(F)cc(F)c2)c1Cl [Compound 1-65] | 5 (Level 5: growth control rate is above 85%) | 5 (Level 5: growth control rate is above 85%) | 5 (Level 5: growth control rate is above 85%) | 5 (Level 5: growth control rate is above 85%)
